Toxic doses and inconclusive results are not listed. Cut-off read from the data, not from the text of the source: active = T/C of 150% or more; inactive = T/C below 125%.
Tested on: L1210 leukemia ip in BDF1 mice, survival T/C
Assay: NCI In Vivo Anticancer Drug Screen. Data for tumor model L1210 Leukemia (intraperitoneal) in B6D2F1 (BDF1) mice
Details: endpoint: mean survival time, higher = longer survival
Outline: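 Ratio derived from survival: compound-dosed mice over vehicle-dosed mice, all bearing a transplantable tumor.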

[1] = dose: 100.0 mg/kg/injection, schedule: Q01DX009 (ip), vehicle: saline with Tween-80
[2] = dose: 200.0 mg/kg/injection, schedule: Q01DX009 (ip), vehicle: saline with Tween-80
[3] = dose: 200.0 mg/kg/injection, schedule: Q04DX003 (ip), vehicle: saline with Tween-80
[4] = dose: 400.0 mg/kg/injection, schedule: Q01DX009 (ip), vehicle: saline with Tween-80
[5] = dose: 400.0 mg/kg/injection, schedule: Q04DX003 (ip), vehicle: saline with Tween-80
[6] = dose: 100.0 mg/kg/injection, schedule: Q04DX003 (ip), vehicle: saline
[7] = dose: 100.0 mg/kg/injection, schedule: Q01DX001 (ip), vehicle: saline
[8] = dose: 200.0 mg/kg/injection, schedule: Q01DX001 (ip), vehicle: saline
[9] = dose: 100.0 mg/kg/injection, schedule: Q04DX003 (ip), vehicle: Klucel (hydroxypropylcellulose) (HPC)
[10] = dose: 100.0 mg/kg/injection, schedule: Q01DX001 (ip), vehicle: carboxymethylcellulose (CMC)
[11] = dose: 200.0 mg/kg/injection, schedule: Q01DX001 (ip), vehicle: carboxymethylcellulose (CMC)
[12] = dose: 400.0 mg/kg/injection, schedule: Q01DX001 (ip), vehicle: carboxymethylcellulose (CMC)

Measured: T/C

CC(=O)OC1C=CCC2C(=O)c3c(c(O)c4ccccc4c3O)C(=O)C12 (centres undefined)
inactive: [1] 95 % of control | dose: 100.0 mg/kg/injection, schedule: Q04DX003 (ip), vehicle: saline with Tween-80 95 % of control | [2] 105 % of control | [3] 95 % of control | [4] 100 % of control | [5] 90 % of control

Cc1ccc(C(=O)/C=C/c2ccc(N(C)C)cc2)cc1
inactive: [1] 90 % of control | [2] 93 % of control | [4] 97 % of control

CCOC(=O)c1ccc(N2C(N)=NC(N)=NC2(C)C)cc1
inactive: [6] 101 % of control

Clc1nc2ccccc2[nH]1
inactive: [7] 114 % of control | [8] 105 % of control | dose: 400.0 mg/kg/injection, schedule: Q01DX001 (ip), vehicle: saline 110 % of control

O=S(=O)(NC(CCl)=NCc1ccccc1)c1ccccc1
inactive: dose: 100.0 mg/kg/injection, schedule: Q04DX002 (ip), vehicle: Klucel (hydroxypropylcellulose) (HPC) 96 % of control | dose: 200.0 mg/kg/injection, schedule: Q04DX002 (ip), vehicle: Klucel (hydroxypropylcellulose) (HPC) 100 % of control | dose: 400.0 mg/kg/injection, schedule: Q04DX002 (ip), vehicle: Klucel (hydroxypropylcellulose) (HPC) 86 % of control

Cc1cccc(C(C#N)c2ccc(N)cc2)c1 (centres undefined)
inactive: dose: 50.0 mg/kg/injection, schedule: Q01DX001 (ip), vehicle: saline 101 % of control | [7] 101 % of control | [8] 101 % of control

CC(=O)Nc1ccc(C)cc1
inactive: dose: 100.0 mg/kg/injection, schedule: Q01DX001 (ip), vehicle: Klucel (hydroxypropylcellulose) (HPC) 94 % of control | dose: 200.0 mg/kg/injection, schedule: Q01DX001 (ip), vehicle: Klucel (hydroxypropylcellulose) (HPC) 102 % of control | dose: 400.0 mg/kg/injection, schedule: Q01DX001 (ip), vehicle: Klucel (hydroxypropylcellulose) (HPC) 91 % of control

NC(N)=NO
inactive: dose: 9.37 mg/kg/injection, schedule: Q01DX009 (ip), vehicle: saline 107 % of control | dose: 18.75 mg/kg/injection, schedule: Q01DX009 (ip), vehicle: saline 107 % of control | dose: 37.5 mg/kg/injection, schedule: Q01DX009 (ip), vehicle: saline 109 % of control | dose: 75.0 mg/kg/injection, schedule: Q01DX009 (ip), vehicle: saline 111 % of control | dose: 100.0 mg/kg/injection, schedule: Q01DX Z (ip), vehicle: saline 115 % of control | dose: 144.0 mg/kg/injection, schedule: Q03HX024 (ip), vehicle: saline 123 % of control | dose: 150.0 mg/kg/injection, schedule: Q01DX Z (ip), vehicle: other 112 % of control | dose: 217.0 mg/kg/injection, schedule: Q03HX024 (ip), vehicle: saline 117 % of control | dose: 300.0 mg/kg/injection, schedule: Q01DX Z (ip), vehicle: other 121 % of control | dose: 300.0 mg/kg/injection, schedule: Q01DX Z (ip), vehicle: saline 122 % of control | dose: 325.0 mg/kg/injection, schedule: Q03HX024 (ip), vehicle: saline 122 % of control | dose: 400.0 mg/kg/injection, schedule: Q04DX003 (ip), vehicle: saline 104 % of control | dose: 487.0 mg/kg/injection, schedule: Q03HX024 (ip), vehicle: saline 113 % of control | dose: 600.0 mg/kg/injection, schedule: Q04DX003 (ip), vehicle: saline 91 % of control

CCc1ccccc1NC(=O)Nc1cccc2ccccc12
inactive: dose: 100.0 mg/kg/injection, schedule: Q01DX009 (ip), vehicle: gum acacia 98 % of control | dose: 100.0 mg/kg/injection, schedule: Q04DX003 (ip), vehicle: gum acacia 96 % of control | dose: 200.0 mg/kg/injection, schedule: Q01DX009 (ip), vehicle: gum acacia 95 % of control | dose: 200.0 mg/kg/injection, schedule: Q04DX003 (ip), vehicle: gum acacia 96 % of control | dose: 400.0 mg/kg/injection, schedule: Q01DX009 (ip), vehicle: gum acacia 88 % of control | dose: 400.0 mg/kg/injection, schedule: Q04DX003 (ip), vehicle: gum acacia 93 % of control

CCCCCCCCN(C)N=Nc1ccc(C(N)=O)cc1
inactive: dose: 118.0 mg/kg/injection, schedule: Q01DX009 (ip), vehicle: Klucel (hydroxypropylcellulose) (HPC) 122 % of control | dose: 175.0 mg/kg/injection, schedule: Q01DX009 (ip), vehicle: Klucel (hydroxypropylcellulose) (HPC) 115 % of control

CC12CCC(C(=N/O)/C1=N\O)C2(C)C (centres undefined)
inactive: dose: 20.0 mg/kg/injection, schedule: Q04DX003 (ip), vehicle: Klucel (hydroxypropylcellulose) (HPC) 106 % of control | dose: 25.0 mg/kg/injection, schedule: Q01DX009 (ip), vehicle: Klucel (hydroxypropylcellulose) (HPC) 107 % of control | dose: 40.0 mg/kg/injection, schedule: Q04DX003 (ip), vehicle: Klucel (hydroxypropylcellulose) (HPC) 103 % of control | dose: 50.0 mg/kg/injection, schedule: Q01DX009 (ip), vehicle: Klucel (hydroxypropylcellulose) (HPC) 107 % of control | dose: 80.0 mg/kg/injection, schedule: Q04DX003 (ip), vehicle: Klucel (hydroxypropylcellulose) (HPC) 105 % of control | [9] 96 % of control

COc1c(C)c(C)c(OC)c(Br)c1C
inactive: dose: 100.0 mg/kg/injection, schedule: Q01DX001 (ip), vehicle: saline with Tween-80 98 % of control | [1] 95 % of control | dose: 200.0 mg/kg/injection, schedule: Q01DX001 (ip), vehicle: saline with Tween-80 102 % of control | [2] 98 % of control | dose: 400.0 mg/kg/injection, schedule: Q01DX001 (ip), vehicle: saline with Tween-80 98 % of control | [4] 106 % of control

O=NN1CCN(c2ccccc2)C1=O
inactive: dose: 18.0 mg/kg/injection, schedule: Q01DX001 (ip), vehicle: carboxymethylcellulose (CMC) 94 % of control | dose: 37.0 mg/kg/injection, schedule: Q01DX001 (ip), vehicle: carboxymethylcellulose (CMC) 96 % of control | dose: 75.0 mg/kg/injection, schedule: Q01DX001 (ip), vehicle: carboxymethylcellulose (CMC) 102 % of control | [10] 98 % of control | dose: 150.0 mg/kg/injection, schedule: Q01DX001 (ip), vehicle: carboxymethylcellulose (CMC) 98 % of control | [11] 104 % of control | dose: 250.0 mg/kg/injection, schedule: Q01DX001 (ip), vehicle: carboxymethylcellulose (CMC) 96 % of control | dose: 300.0 mg/kg/injection, schedule: Q01DX001 (ip), vehicle: carboxymethylcellulose (CMC) 105 % of control | [12] 98 % of control | dose: 500.0 mg/kg/injection, schedule: Q01DX001 (ip), vehicle: carboxymethylcellulose (CMC) 106 % of control | dose: 600.0 mg/kg/injection, schedule: Q01DX001 (ip), vehicle: carboxymethylcellulose (CMC) 91 % of control | dose: 800.0 mg/kg/injection, schedule: Q01DX001 (ip), vehicle: carboxymethylcellulose (CMC) 96 % of control

OCCOc1ccc(-c2ccccc2)cc1
inactive: dose: 75.0 mg/kg/injection, schedule: Q04DX002 (ip), vehicle: Klucel (hydroxypropylcellulose) (HPC) 101 % of control | dose: 150.0 mg/kg/injection, schedule: Q04DX002 (ip), vehicle: Klucel (hydroxypropylcellulose) (HPC) 105 % of control | dose: 300.0 mg/kg/injection, schedule: Q04DX002 (ip), vehicle: Klucel (hydroxypropylcellulose) (HPC) 108 % of control

COc1ccc2nccc(C=O)c2c1
inactive: dose: 50.0 mg/kg/injection, schedule: Q01DX001 (ip), vehicle: carboxymethylcellulose (CMC) 108 % of control | [10] 102 % of control | [1] 101 % of control | [11] 102 % of control | [2] 95 % of control | [3] 101 % of control | [12] 96 % of control | [5] 89 % of control

CN(C)C(=O)c1cc[n+](Cc2ccc(Cl)cc2)cc1
inactive: [6] 98 % of control

O=C1NC(=O)C(c2ccccc2)(C2CCC2)N1 (centres undefined)
inactive: [1] 93 % of control | [2] 103 % of control | [4] 95 % of control

c1ccc(C2=NNC(c3ccccc3)(c3ccccc3)c3ccccc32)cc1
inactive: dose: 100.0 mg/kg/injection, schedule: Q01DX001 (ip), vehicle: other 96 % of control | dose: 200.0 mg/kg/injection, schedule: Q01DX001 (ip), vehicle: other 90 % of control | dose: 400.0 mg/kg/injection, schedule: Q01DX001 (ip), vehicle: other 95 % of control

CN(C)c1ccc(/C=C/C=C/C(=O)c2ccccc2)cc1
inactive: [9] 88 % of control | dose: 200.0 mg/kg/injection, schedule: Q04DX003 (ip), vehicle: Klucel (hydroxypropylcellulose) (HPC) 93 % of control | dose: 400.0 mg/kg/injection, schedule: Q04DX003 (ip), vehicle: Klucel (hydroxypropylcellulose) (HPC) 93 % of control
